From patent US9249128B2 (priority 2010, dated 2016)
Where two headings read alike, the source gives them in different places.

Key:
AChE = target: T1, AChE (Mus musculus, UniProt P21836); assay: AChE activity assay with acetylthiocholine in mouse brain proteome; type: biochemical; settings: for Cross-reactivity with AChE: acetylthiocholine hydrolysis in mouse brain membrane proteome; for IC50: mouse brain proteome, substrate acetylthiocholine, n=3, read-out: IC50 for AChE (FIG. 2D)
T1 construct: 20 μg of cell lysate or mouse brain membrane proteome; from tissue; host or cells: mouse brain (membrane proteome)
T1 sequence (P21836 32-614): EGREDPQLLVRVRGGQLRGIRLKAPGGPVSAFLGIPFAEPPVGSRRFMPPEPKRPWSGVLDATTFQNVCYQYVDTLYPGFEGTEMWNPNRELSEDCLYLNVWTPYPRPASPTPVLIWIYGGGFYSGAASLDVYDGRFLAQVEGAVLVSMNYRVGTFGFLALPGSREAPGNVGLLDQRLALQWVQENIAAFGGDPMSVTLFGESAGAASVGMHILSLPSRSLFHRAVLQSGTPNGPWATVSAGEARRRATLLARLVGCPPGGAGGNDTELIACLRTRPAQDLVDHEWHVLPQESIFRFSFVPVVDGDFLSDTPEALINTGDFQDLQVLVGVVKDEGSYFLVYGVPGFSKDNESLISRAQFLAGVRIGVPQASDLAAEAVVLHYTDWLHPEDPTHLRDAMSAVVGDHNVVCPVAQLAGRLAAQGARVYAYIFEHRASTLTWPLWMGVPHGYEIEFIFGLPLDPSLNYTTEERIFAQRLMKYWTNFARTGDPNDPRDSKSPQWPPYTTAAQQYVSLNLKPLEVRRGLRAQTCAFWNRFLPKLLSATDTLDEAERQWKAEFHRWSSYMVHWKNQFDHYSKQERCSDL
Procedure: AChE activity was measured using a method similar to that described previously (Ellman et al., 1961). Briefly, 50 μL of 10 mM acetylthiocholine was added to 200 μL of PBS containing 2 mM DTNB and 20 μg of cell lysate or mouse brain membrane proteome. Absorbance was measured at 412 nm over 5 min, and the rate of product accumulation was calculated from the slope of the absorbance over time. For assays involving preincubation with inhibitors, the reactions were prepared without acetylthiocholine and JW480 was incubated at the indicated concentration for 30 min at 37° C. Acetylthiocholine was then added and the assay was carried out exactly as described above.

KIAA1363 = target: T2, KIAA1363 (Mus musculus, UniProt Q8BLF1); assay: Gel-based competitive ABPP of KIAA1363 in mouse brain membrane proteome (FP-rhodamine); type: biochemical
T2 construct: ABPP analysis of KIAA1363 activity in mouse brain membrane proteome; from tissue; host or cells: mouse brain (membrane fraction)
T2 sequence (Q8BLF1 1-408): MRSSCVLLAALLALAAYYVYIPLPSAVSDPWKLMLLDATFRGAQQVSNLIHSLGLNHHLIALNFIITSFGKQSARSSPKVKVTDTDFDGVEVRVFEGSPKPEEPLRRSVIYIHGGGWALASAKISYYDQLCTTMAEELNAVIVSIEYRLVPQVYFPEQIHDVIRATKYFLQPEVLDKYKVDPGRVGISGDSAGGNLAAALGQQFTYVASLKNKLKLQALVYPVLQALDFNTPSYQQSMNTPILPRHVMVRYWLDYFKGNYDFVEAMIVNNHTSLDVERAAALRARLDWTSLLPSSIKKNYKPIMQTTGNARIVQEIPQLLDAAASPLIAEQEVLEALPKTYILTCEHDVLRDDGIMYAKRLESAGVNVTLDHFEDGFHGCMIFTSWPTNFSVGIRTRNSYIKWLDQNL
Procedure: In various embodiments, the invention provides a method of inhibiting a serine hydrolase, comprising contacting the hydrolase with a compound of formula (I), e.g., a compound selected from set of compounds shown in Table 1, below. […] IC50 values were derived from ABPP analysis of KIAA1363 activity in mouse brain membrane proteome and are averages of three replicates. Inhibitors were added to the proteome for 30 min before addition of FP-rhodamine (1 μM, 30 min).
Tissues were Dounce-homogenized in PBS, pH 7.4, followed by a low-speed spin (1,400 g, 5 min) to remove debris. The supernatant was then subjected to centrifugation (100,000×g, 45 min) to provide the cytosolic fraction in the supernatant and the unsoluble fraction as a pellet. The pellet was washed and resuspended in PBS buffer by sonication. Total protein concentration in each fraction was determined using a protein assay kit (Bio-Rad). Samples were stored at −80° C. until use.
For ABPP experiments, cell lysate and tissue proteomes were treated with 1 μM FP-rhodamine for 30 min at room temperature (50 μL total reaction volume) as described previously (Nomura et al., 2010). Reactions were quenched with one volume of standard 4×SDS/PAGE loading buffer (reducing), separated by SDS/PAGE (10% acrylamide), and visualized in-gel with a Hitachi FMBio IIe flatbed fluorescence scanner (MiraiBio). Inhibitors were preincubated prior (30 min or 4 h at 37° C. in vitro or in situ, respectively) to the addition of FP-rhodamine.

PC3 and DU145 cells = assay: Cell migration assay (Transwell); type: cell-based, human; settings: for PC3 and DU145 migration: 10 μM, 4 h in situ
Procedure: Inhibitors were dissolved in DMSO and diluted into media or buffer prior to cell or proteome treatment, respectively. For in vitro treatment, final DMSO concentration was 4%. For in situ treatments of cells for ABPP, lipid measurements, migration, cell-survival, and invasion assays, 2×10^6 cells were seeded in 6 cm dishes (˜100% confluency) 24 h prior to inhibitor pre-treatment (in DMSO at 0.1% final concentration) in serum-free media (3 mL) for the designated time before harvesting cells for ABPP or lipid measurements or before the initiation of migration, cell-survival, and invasion assays.
Cell migration, cell survival, and invasion studies were performed as previously described (Nomura et al., 2010). Briefly, migration assays were performed in Transwell chambers (Corning) with 8 μm pore-sized membranes coated with 10 μg/mL collagen at 37° C. for LNCaP (24 h), PC3 (4 h) and DU145 cells (24 h), respectively. Cell survival assays were performed using the Cell Proliferation Reagent WST-1 (Roche) Invasion assays were conducted using the BD Matrigel Invasion Chambers per the manufacturer's protocol. Inhibitors were preincubated for the stated duration before seeding cells into migration, cell-survival, or invasion chambers. Prior to seeding the cells in these chambers, cells were serum-starved for 4 h. Inhibitors were also present during the migration, cell-survival, and invasion assays.

[1] = competitive ABPP in mouse brain proteome, n=3, read-out: IC50 for KIAA1363 (FIG. 2D)
[2] = mouse brain KIAA1363, read-out: IC50 for KIAA1363
[3] = mouse brain membrane proteome, inhibitor 30 min before FP-rhodamine (1 μM, 30 min), averages of three replicates, read-out: IC50 (KIAA1363)

SMILES	Cross-reactivity with AChE (AChE)	IC50 (AChE) [nM]	IC50 (KIAA1363; [1]) [nM]	IC50 (KIAA1363; [2]) [nM]	IC50 (KIAA1363; [3]) [nM]	IC50 (KIAA1363; screened against KIAA1363, Table 1, read-out: IC50 values of less than 1 micromolar) [nM]	PC3 and DU145 migration (PC3 and DU145 cells)	IC50 (KIAA1363; screened against KIAA1363, Table 1, read-out: IC50 values of around 10 nanomolar (most potent)) [nM]	Migration of PC3 cells (PC3 and DU145 cells; 1 μM, 48 h in situ)
COc1ccc(CNC(=O)Oc2cccc3c2OC(C)(C)C3)cc1 [JW148, 2,2-dimethyl-2,3-dihydrobenzofuran-7-yl 4-methoxybenzylcarbamate]	cross-reactivity	1000	200	~200	117	< 1000	impair	–	–
CC(C)c1ccccc1OC(=O)NCCc1ccc2ccccc2c1 [JW480, 2-isopropylphenyl (2-(naphthalen-2-yl)ethyl)carbamate]	negligible cross-reactivity	> 100000	20	20	13.9	–	impair	~10	reduced
